The text below walks through data of patent publication US10782295B2, “Cysteine-reactive ligand discovery in proteomes” (THE SCRIPPS RESEARCH INSTITUTE, priority 2013, dated 2020).

Experiment [1] concerns cysteines in ZAK, EEF2, RTN4 and FN3KRP. The experiment is described as follows: in situ competitive isoTOP-ABPP in MDA-MB-231 cells. The experiment is classed as cell-based, human. Conditions: MDA-MB-231 cells treated with 50 or 100 μM HNE. The protocol:
By combining the R values at all 5 HNE concentrations, we could extrapolate IC50 values for […] of IA probe-labeling for ˜700 of the 1100 cysteines (FIG. 3a).
After MDA-MB-231 cells were grown to 100% confluency, the media was removed and replaced with fresh serum-free media containing 100 μM HNE (20 μL of […] stock in 10 mL media). A control flask of cells was treated with 10 mL of serum-free media containing 20 uL of ethanol in parallel. The cells were incubated at 37° C. for 1 hour and harvested as detailed above to prepare HNE-treated and control proteomes, respectively. […]
IA-probe labeled peptides were identified by SEQUEST2 and DTASelect3, and the quantification of heavy/light ratios (isoTOP-ABPP ratios, R) was performed by an in-house software (CIMAGE) as previously described. The software was advanced to be able to detect and quantify cases where near complete […] blockade of IA-probe labeling was achieved (e.g., very small or no light peak) and assign an empirical ratio cut-off of 15 to each of such cases. […] In the case of probe-modified peptides that were sequenced in one, but not the other runs, a featured algorithm of CIMAGE was utilized to identify the corresponding peak pairs in the runs without the SEQUEST identification and obtain quantification as previously described. […]

Experiment [2] concerns the target ZAK (Homo sapiens, UniProt Q9NYL2). The experiment is described as follows: SILAC-ABPP with acylphosphate-ATP probe. It is filed as binding. Set-up: Full-length cDNA encoding human ZAK-13 (BC001401); expressed in transfected cells. Conditions: 100 μM, 30 min; ZAK-transfected HEK293T proteome. From the text:
The gel signals for IA-labeling of WT-ZAK were blocked by pretreatment with HNE over a concentration range that closely matched the HNE-sensitivity profile observed for C22 in competitive isoTOP-ABPP experiments (FIG. 4b, compare to FIG. 3a). […] Considering further that C22 is predicted to reside adjacent to the ATP-binding loop of ZAK, we postulated that the HNE-induced loss of kinase activity might be due to blockade of ATP-binding.
HEK-293T cells with stable expression of wild-type ZAK were passaged six times in DMEM medium minus 1-lysine and 1-arginine (Thermo) supplemented 10% dialyzed FBS (Gemini), 1% PSQ (1% vol/vol 10,000 units penicillin, 10 mg streptomycin, 29.2 mg lglutamate solution) and 100 μg/mL [^13C6, ^15N4] 1-arginineHCl and [^13C6,^15N2] 1-lysineHCl (heavy) or 1-arginineHCl and 1-lysineHCl (light) (Sigma-Aldrich). […] The trypsin digested samples were analysed by LC-MS/MS and enriched kinase peptides were identified by SEQUEST and DTASelect. The amounts of probe-labeled kinases with and without HNE treatment were quantified using the CIMAGE module that was developed for quantitative SILAC-ABPP chemoproteomic profiling. As internal controls, light and heavy proteomes were trypsin digested without probe labeling and streptavidin enrichment, and analysed by LC-MS/MS to quantify the basic level of each kinase between light and heavy samples. […]

ZAK, sequence (Q9NYL2 1-455 isoform Q9NYL2-2): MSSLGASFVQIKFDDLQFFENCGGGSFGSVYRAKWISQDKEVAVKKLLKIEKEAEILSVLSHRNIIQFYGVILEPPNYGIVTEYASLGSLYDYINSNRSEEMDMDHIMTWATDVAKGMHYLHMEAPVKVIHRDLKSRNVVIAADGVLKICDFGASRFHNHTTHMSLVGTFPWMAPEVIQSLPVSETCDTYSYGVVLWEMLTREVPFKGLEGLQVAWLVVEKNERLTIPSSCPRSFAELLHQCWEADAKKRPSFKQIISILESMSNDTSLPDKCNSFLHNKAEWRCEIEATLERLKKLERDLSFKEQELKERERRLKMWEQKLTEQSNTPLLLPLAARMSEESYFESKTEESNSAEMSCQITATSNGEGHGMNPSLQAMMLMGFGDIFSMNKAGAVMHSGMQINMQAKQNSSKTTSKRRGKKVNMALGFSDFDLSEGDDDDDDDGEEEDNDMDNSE

With `CCCCCC(O)/C=C/C=O` (centres unmarked) [4-HNE, 4-Hydroxynonenal], the “inhibition of the most HNE-sensitive cysteines in situ” value in experiment [1] is “strongly inhibited”. The “acylphosphate-ATP probe-labeling of ZAK” value in experiment [2] is on record as “profoundly reduced”.
